Measured values published in article PMC10641717 (Journal of medicinal chemistry, 2023).

Assays:
His-tagged BRD7 BD = molecular target: T1, His-tagged BRD7 BD (Homo sapiens, UniProt Q9NPI1); assay: Thermal shift assay; type: binding; details: compounds at 25, 10, or 1 μM
T1 sequence (Q9NPI1 131-235 limits assumed): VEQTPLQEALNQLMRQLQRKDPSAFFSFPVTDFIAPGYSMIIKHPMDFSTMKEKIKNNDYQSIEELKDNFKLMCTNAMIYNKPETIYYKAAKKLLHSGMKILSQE

His-tagged BRD9 BD = molecular target: T2, His-tagged BRD9 BD (Homo sapiens, UniProt Q9H8M2); assay: Thermal shift assay; type: binding; details: compounds at 25, 10, or 1 μM
T2 sequence (Q9H8M2 136-240 limits assumed): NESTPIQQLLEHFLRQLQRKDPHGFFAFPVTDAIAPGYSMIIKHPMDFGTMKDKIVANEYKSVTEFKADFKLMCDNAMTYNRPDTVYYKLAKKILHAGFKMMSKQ

40 distinct BDs = assay: BROMOscan BromoMAX panel; type: binding, human; details: for binding to other BDs in BROMOscan: 2 μM, BDs other than BRD7/BRD9; for selectivity in BROMOscan panel: 2 μM concentration
22Rv1 cells = assay: On-target activity assessment in 22Rv1 cells with BRD7 knockdown; type: cell-based, human; details: 2.5 or 5 μM, 4 days, two shRNA constructs
BRPF1B BD [1] = molecular target: T3, BRPF1B BD (Homo sapiens, UniProt P55201); assay: BROMOscan BromoMAX panel; type: binding; details: 2 μM
T3 sequence (P55201 628-732 limits assumed): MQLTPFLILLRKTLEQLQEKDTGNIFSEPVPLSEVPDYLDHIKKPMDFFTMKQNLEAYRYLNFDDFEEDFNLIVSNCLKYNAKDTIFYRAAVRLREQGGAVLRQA

BRD7 BD = molecular target: T4, BRD7 BD (Homo sapiens, UniProt Q9NPI1); assay: NanoBRET target engagement in HEK293T cells
T4 sequence (Q9NPI1 131-235 limits assumed): T1 sequence (Q9NPI1 131-235 limits assumed)

LNCaP cells [2] = assay: Growth inhibition, CellTiter-Glo, 4 days; type: cell-based, human; details: 5, 1, and 0.1 μM
BRD9 BD = molecular target: T5, BRD9 BD (Homo sapiens, UniProt Q9H8M2); assay: Microscale thermophoresis; type: binding; details: 50 nM His-tagged BRD9, ligand from 50 μM
T5 sequence (Q9H8M2 136-240 limits assumed): T2 sequence (Q9H8M2 136-240 limits assumed)

[3] = tested on: LNCaP, C4–2 and PC3 cells; assay: Dose curves over 7 days of treatment, CellTiter-Glo; type: cell-based, human
His-tagged BRPF1B BD = molecular target: T6, His-tagged BRPF1B BD (Homo sapiens, UniProt P55201); assay: Thermal shift assay; type: binding; details: compounds at 25, 10, or 1 μM
T6 sequence (P55201 628-732 limits assumed): T3 sequence (P55201 628-732 limits assumed)

PC-3 cells = assay: Growth inhibition, CellTiter-Glo, 4 days; type: cell-based, human; details: 5, 1, and 0.1 μM
BRPF1B BD [4] = molecular target: T3, BRPF1B BD; assay: NanoBRET target engagement in HEK293T cells; type: cell-based
LNCaP cells [5] = assay: RNA-Seq gene expression in LNCaP cells; type: cell-based, human; details: 1 μM, 72 h
BRD9 = molecular target: T7, BRD9 (Homo sapiens, UniProt Q9H8M2); assay: Cell fractionation assay, BRD9 bound to chromatin; type: cell-based; details: HEK293T, 10 μM, 24 h
T7 sequence (Q9H8M2 1-597): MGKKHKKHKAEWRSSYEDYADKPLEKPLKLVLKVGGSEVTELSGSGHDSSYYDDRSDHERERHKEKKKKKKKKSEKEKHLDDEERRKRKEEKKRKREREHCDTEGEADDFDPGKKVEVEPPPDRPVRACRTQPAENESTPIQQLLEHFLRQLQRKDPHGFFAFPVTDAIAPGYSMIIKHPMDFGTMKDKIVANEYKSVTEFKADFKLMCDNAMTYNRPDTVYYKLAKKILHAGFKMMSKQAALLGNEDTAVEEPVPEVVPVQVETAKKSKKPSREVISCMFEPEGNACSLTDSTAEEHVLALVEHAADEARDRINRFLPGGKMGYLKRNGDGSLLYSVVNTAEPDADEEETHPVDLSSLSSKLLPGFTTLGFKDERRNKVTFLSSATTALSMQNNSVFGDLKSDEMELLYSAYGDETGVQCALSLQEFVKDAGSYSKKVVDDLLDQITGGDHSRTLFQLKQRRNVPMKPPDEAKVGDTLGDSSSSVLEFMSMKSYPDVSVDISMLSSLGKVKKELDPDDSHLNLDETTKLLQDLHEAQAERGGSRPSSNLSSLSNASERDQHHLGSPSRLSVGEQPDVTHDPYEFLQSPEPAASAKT

For `Cc1cc(C)cc(-c2cn(C)c(=O)c3ccccc23)c1` [1–38, 4-(3,5-Dimethylphenyl)-2-methylisoquinolin-1(2H)-one], the “stabilization / Tm increase of BRD7 BD (TSA)” value (His-tagged BRD7 BD) was “stabilized and increased the Tm”, the “stabilization / Tm increase of BRD9 BD (TSA)” value (His-tagged BRD9 BD) was “stabilized and increased the Tm” and the “binding to other BDs in BROMOscan” value (40 distinct BDs) was “no binding to other BDs”.

With `COc1ccc(-c2ccc3c(C)cc(=O)n(C)c3c2)c(C)n1` [1–78, 7-(6-Methoxy-2-methylpyridin-3-yl)-1,4-dimethylquinolin-2(1H)-one] the “viability of 22Rv1 cells with BRD7 knockdown” value (22Rv1 cells) was “not significantly affected”, the “binding to BRPF1B BD in BROMOscan” value (BRPF1B BD [1]) was “off-target binding” and the IC50 (BRD7 BD) was 800 nM. The LNCaP cell growth (LNCaP cells [2]) was “inhibited the cell growth”, the “stabilization / Tm increase of BRD7 BD (TSA)” value (His-tagged BRD7 BD) was “increased the Tm” and the “selectivity in BROMOscan panel” value (40 distinct BDs) was “showed selectivity for BRD7 over BRD9”. The “binding to BRD9 (MST)” value (BRD9 BD) was “no binding”, the “sensitivity of LNCaP and C4–2 cells relative to PC3 cells” value [3] was 3−6 times and the “stabilization of BRPF1B BD (TSA)” value (His-tagged BRPF1B BD) was “modest stabilization of BRPF1B at the highest concentration (25 μM)”. The PC-3 cell growth (PC-3 cells) was “active in PC-3 only at the highest concentration”.

With `COc1ccc(-c2ccc3c(C)cc(=O)n(C)c3c2)c(OC)n1` [2–77, 7-(2,6-Dimethoxypyridin-3-yl)-1,4-dimethylquinolin-2(1H)-one] the “viability of 22Rv1 cells with BRD7 knockdown” value (22Rv1 cells) was “less affected”, the “binding to BRPF1B BD in BROMOscan” value (BRPF1B BD [1]) was “off-target binding” and the IC50 (BRD7 BD) was 1200 nM. For the same compound, the LNCaP cell growth (LNCaP cells [2]) was “inhibited the cell growth”, the “stabilization / Tm increase of BRD7 BD (TSA)” value (His-tagged BRD7 BD) was “increased the Tm” and the IC50 (BRPF1B BD [4]) was > 10000 nM. The “selectivity in BROMOscan panel” value (40 distinct BDs) was “showed selectivity for BRD7 over BRD9”, the “binding to BRD9 (MST)” value (BRD9 BD) was “no binding” and the “GSEA Hallmark_Androgen_Response enrichment” value (LNCaP cells [5]) was “significant and strong negative enrichment”. The “sensitivity of LNCaP and C4–2 cells relative to PC3 cells” value [3] was 3−6 times and the PC-3 cell growth (PC-3 cells) was “active in PC-3 only at the highest concentration”.

With `COc1ccc2ccccc2c1-c1ccc2c(C)cc(=O)n(C)c2c1` [2–81, 7-(2-Methoxynaphthalen-1-yl)-1,4-dimethylquinolin-2(1H)-one] the “binding to other BDs in BROMOscan” value (40 distinct BDs) was “no binding to other BDs”.

In the case of `COc1ccc(-c2cn(C)c(=O)c3ccccc23)c(OC)n1` [2–88, 4-(2,6-Dimethoxypyridin-3-yl)-2-methylisoquinolin-1(2H)-one], the “stabilization / Tm increase of BRD7 BD (TSA)” value (His-tagged BRD7 BD) is reported as “stabilized only BRD9 BD” and the “stabilization / Tm increase of BRD9 BD (TSA)” value (His-tagged BRD9 BD) is reported as “stabilized only BRD9 BD”.

In the case of `COc1cc(-c2cn(C)c(=O)c3cnccc23)cc(OC)c1CN(C)C` [BI7273, reference compound], the LNCaP cell growth (LNCaP cells [2]) is reported as “little to no effect”, the “stabilization / Tm increase of BRD7 BD (TSA)” value (His-tagged BRD7 BD) is reported as “binding and stabilization” and the PC-3 cell growth (PC-3 cells) is reported as “little to no effect”.

With `COc1ccccc1C(=O)Nc1cc2c(cc1N1CCCCC1)n(C)c(=O)n2C` [GSK-5959, reference compound] the LNCaP cell growth (LNCaP cells [2]) was “little to no effect” and the PC-3 cell growth (PC-3 cells) was “little to no effect”.

In the case of `CCn1cc(-c2cccc(C(F)(F)F)c2)c2sc(C(=N)NC3CCS(=O)(=O)CC3)cc2c1=O` [I-BRD9], the “BRD9 bound to chromatin after treatment” value (BRD9) is reported as “significantly reduced BRD9 from chromatin”.
